Common to all, as to assay type: biochemical
One assay concerns Veillonella alcalesens. The assay is described as follows: Aminopeptidase activity on β-naphthylamide substrates. To be noted: strain ATCC 11748; β-naphthylamine liberated after 60 minutes, 37° C. The method, boiled down: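 Enzyme plus N-CBz-glycyl-glycyl-L-arginine-β-naphthylamide incubated 1 h at 37° C. Fast Garnet GBC (0.5 mg/ml) in 1M acetate pH 4.2 with 10% Tween 20 added; stood 15 min at RT. A525 read; activity given as nmol β-naphthylamine liberated in 60 min.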

A further assay deals with C. ochracea. The note with it: strain ATCC 27872; β-naphthylamine liberated after 60 minutes, 37° C. In a few lines:
(§1)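 Hydrolysis of N-CBz-glycyl-glycyl-L-arginine-β-naphthylamide over 1 h at 37 °C, then colour developed with Fast Garnet GBC (0.5 mg/ml) in 1M acetate pH 4.2 with 10% Tween 20 for 15 min at room temperature. Absorbance read at 525 nm against an enzyme-free control; activity given as nmol β-naphthylamine released in 60 min.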

The test system of the next assay is B. mel. ss. intermedius. To be noted: β-naphthylamine liberated after 60 minutes, 37° C. In a few lines:
as §1

Another assay concerns B. asaccharolyticus. The note with it: β-naphthylamine liberated after 60 minutes, 37° C. The method, boiled down: as §1
The next assay deals with Capnocytophaga sp. To be noted: strain JD3-5; β-naphthylamine liberated after 60 minutes, 37° C. The method, boiled down: as §1
The test system of assay [1] is Capnocytophaga gingivalis. The note with it: strain ATCC 33624; β-naphthylamine liberated after 60 minutes, 37° C. The method, boiled down: as §1

This passage reports Aminopeptidase activity results from patent US4994376A, “Detection of bacteroides gingivalis” (priority 1987, dated 1991).

Like-named read-outs stand apart in the source and are kept apart here. Peptide text beside a SMILES is read from it. * marks the point of attachment. βNA = c1ccc2cc(N*)ccc2c1

With `NC(=O)[C@@H](N)CCC(=O)O` [α-Glu, α -glutamine], the Aminopeptidase activity in the assay on Veillonella alcalesens was 0 nmol; in the assay with C. ochracea it was 5 nmol; in the assay with B. mel. ss. intermedius (strain ATCC 25261) it was 0 nmol; in the assay with B. mel. ss. intermedius (strain ATCC 33563), 0 nmol; in the assay on B. mel. ss. intermedius (strain NCTC 9336), 0 nmol; in the assay on B. asaccharolyticus (strain 536B) it was 0 nmol. The Aminopeptidase activity in the assay with B. asaccharolyticus (strain ATCC 18569) is 0 nmol; with B. asaccharolyticus (strain ATCC 25260), 0 nmol; with B. asaccharolyticus (strain ATCC 27067), 0 nmol; in the assay on B. asaccharolyticus (strain NY446) it was 0 nmol; in the assay with Capnocytophaga sp., 0 nmol; in assay [1], 5 nmol.

`CC(C)C[C@H](N)C(=O)NCC(=O)O` [Leu-Gly, Leucyl-glycine] (H-Leu-Gly-OH): the Aminopeptidase activity turned out to be 9 nmol in the assay with C. ochracea; 9 nmol with B. mel. ss. intermedius (strain ATCC 25261); 2 nmol in the assay on B. mel. ss. intermedius (strain ATCC 33563); 11 nmol in the assay with B. mel. ss. intermedius (strain NCTC 9336); 49 nmol with B. asaccharolyticus (strain 536B); 25 nmol in the assay on B. asaccharolyticus (strain ATCC 18569). In addition, the Aminopeptidase activity is 37 nmol in the assay on B. asaccharolyticus (strain ATCC 25260); 51 nmol in the assay on B. asaccharolyticus (strain ATCC 27067); 0 nmol in the assay on B. asaccharolyticus (strain NY446); 0 nmol in the assay on Capnocytophaga sp.; 8 nmol in assay [1].

In the case of `C[C@H](N)C(=O)N[C@@H](C)C(=O)N[C@@H](Cc1ccccc1)C(=O)Nc1ccc2ccccc2c1` [Ala-Ala-Phe] (H-Ala-Ala-Phe-βNA), the Aminopeptidase activity amounted to 1 nmol with Veillonella alcalesens; 82 nmol in the assay with C. ochracea; 0 nmol with B. mel. ss. intermedius (strain ATCC 25261); 0 nmol in the assay on B. mel. ss. intermedius (strain ATCC 33563); 0 nmol in the assay with B. mel. ss. intermedius (strain NCTC 9336); 0 nmol in the assay on B. asaccharolyticus (strain 536B). Besides, the Aminopeptidase activity in the assay with B. asaccharolyticus (strain ATCC 18569) stood at 0 nmol; with B. asaccharolyticus (strain ATCC 25260), 0 nmol; with B. asaccharolyticus (strain ATCC 27067) it was 0 nmol; in the assay with B. asaccharolyticus (strain NY446), 0 nmol; with Capnocytophaga sp. it was 0 nmol; in assay [1], 72 nmol.

Regarding `Cl.N=C(N)NCCC[C@H](NC(=O)CNC(=O)CNC(=O)OCc1ccccc1)C(=O)Nc1ccc2ccccc2c1` [N-CBz-Gly-Gly-Arg, N-carbobenzoxy-glycyl-glycyl-L-arginine-β-naphthylamide hydrochloride], the Aminopeptidase activity in the assay on Veillonella alcalesens was 0 nmol; in the assay with C. ochracea it was 8 nmol; in the assay with B. mel. ss. intermedius (strain ATCC 25261) it was 0 nmol; in the assay with B. mel. ss. intermedius (strain ATCC 33563), 1 nmol; in the assay on B. mel. ss. intermedius (strain NCTC 9336), 1 nmol; in the assay with B. asaccharolyticus (strain 536B), 1 nmol. In addition, the Aminopeptidase activity in the assay with B. asaccharolyticus (strain ATCC 18569) is 0 nmol; in the assay on B. asaccharolyticus (strain ATCC 25260) it was 0 nmol; in the assay with B. asaccharolyticus (strain ATCC 27067), 0 nmol; in the assay on B. asaccharolyticus (strain NY446), 2 nmol; with Capnocytophaga sp. it was 0 nmol; in assay [1] it was 7 nmol.

Take `CC(C)C[C@H](NC(=O)[C@@H]1CCCN1C(=O)CN)C(=O)Nc1ccc2ccccc2c1` [Gly-Pro-Leu] (H-Gly-Pro-Leu-βNA): the Aminopeptidase activity is 0 nmol in the assay on Veillonella alcalesens; 41 nmol in the assay with C. ochracea; 1 nmol with B. mel. ss. intermedius (strain ATCC 25261); 2 nmol in the assay with B. mel. ss. intermedius (strain ATCC 33563); 1 nmol with B. mel. ss. intermedius (strain NCTC 9336); 3 nmol in the assay on B. asaccharolyticus (strain 536B). Moreover, the Aminopeptidase activity in the assay on B. asaccharolyticus (strain ATCC 18569) turned out to be 0 nmol; in the assay on B. asaccharolyticus (strain ATCC 25260), 3 nmol; with B. asaccharolyticus (strain ATCC 27067), 4 nmol; with B. asaccharolyticus (strain NY446) it was 0 nmol; in the assay on Capnocytophaga sp. it was 0 nmol; in assay [1], 58 nmol.

On to `CSCCC(N)C(=O)Nc1ccc2ccccc2c1` (racemic), for which the Aminopeptidase activity came to 0 nmol in the assay on Veillonella alcalesens; 118 nmol in the assay on C. ochracea; 0 nmol in the assay on B. mel. ss. intermedius (strain ATCC 25261); 0 nmol in the assay on B. mel. ss. intermedius (strain ATCC 33563); 0 nmol in the assay with B. mel. ss. intermedius (strain NCTC 9336); 0 nmol in the assay with B. asaccharolyticus (strain 536B). The Aminopeptidase activity in the assay with B. asaccharolyticus (strain ATCC 18569) stood at 0 nmol; in the assay on B. asaccharolyticus (strain ATCC 25260), 1 nmol; in the assay with B. asaccharolyticus (strain ATCC 27067) it was 2 nmol; with B. asaccharolyticus (strain NY446), 0 nmol; with Capnocytophaga sp., 28 nmol; in assay [1], 122 nmol.
